Results reported in PubChem BioAssay (NCI).
“And” between values parts separate entries of the source, which are not always exact repeats. Equal values may be shown once.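 Each compound was tested at five concentrations against cells in 96-well plates for 48 hours. GI50 = concentration required for 50% inhibition of growth. The concentration for full growth arrest is given as TGI.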

Experiments:
Experiment in all cases: DTP human tumour cell line panel, 48 h
M14 melanoma = test system: M14 melanoma
OVCAR-5 ovarian = test system: OVCAR-5 ovarian
OVCAR-8 ovarian = test system: OVCAR-8 ovarian
RPMI-8226 leukemia = test system: RPMI-8226 leukemia
SNB-75 CNS = test system: SNB-75 CNS
UACC-62 melanoma = test system: UACC-62 melanoma
T-47D breast = test system: T-47D breast
TK-10 renal = test system: TK-10 renal

SMILES	GI50 (M14 melanoma)	TGI (M14 melanoma)	GI50 (OVCAR-5 ovarian)	TGI (OVCAR-5 ovarian)	GI50 (OVCAR-8 ovarian)	TGI (OVCAR-8 ovarian)	GI50 (RPMI-8226 leukemia)	TGI (RPMI-8226 leukemia)	GI50 (SNB-75 CNS)	TGI (SNB-75 CNS)	GI50 (UACC-62 melanoma)	TGI (UACC-62 melanoma)	GI50 (T-47D breast)	TGI (T-47D breast)	GI50 (TK-10 renal)	TGI (TK-10 renal)
COc1ncnc(NS(=O)(=O)c2ccc(N=C3C(=O)N(CN4CCN(c5c(F)cc6c(=O)c(C(=O)O)cn(C7CC7)c6c5OC)CC4C)c4ccc(Cl)cc43)cc2)c1OC (stereo unspecified)	21.1 µM	> 50 µM	19.2 µM	> 50 µM	14 µM	> 50 µM	8330 nM	28.1 µM	> 50 µM	> 50 µM	16100 nM	> 50 µM	–	–	–	–
ClCc1cccc(Cn2cnc3ncnc(Cl)c32)c1	3.05 µM	14.6 µM	6.74 µM	19.8 µM	3.1 µM	14.9 µM	13700 nM	34.9 µM	1.84 µM	3.53 µM	2160 nM	5.39 µM	0.212 µM	0.497 µM	1.76 µM	3.3 µM
COc1cc(NCc2ccc3oc(=O)c(-c4ccccc4)nc3c2)cc(OC)c1OC	–	> 10 µM	–	> 10 µM	–	> 10 µM	–	> 10 µM	–	> 10 µM	–	> 10 µM	–	> 10 µM	–	> 10 µM
CN(C)CCSC1=Nc2ccc(Cl)cc2C(c2ccccc2Cl)=NC1	15.8 µM and > 100 µM	36.4 µM and > 100 µM	18.6 µM and > 100 µM	34.4 µM and > 100 µM	6.63 µM and 43.5 µM	20.2 µM and > 100 µM	16200 nM and 49400 nM	40.6 µM and > 100 µM	–	33.1 µM and > 100 µM	–	19.1 µM and > 100 µM	19.2 µM and 78.3 µM	47.3 µM and > 100 µM	17.5 µM and 63.4 µM	33.1 µM and > 100 µM
CN(C(=O)c1ccc(C(F)(F)F)cc1)c1ccc(Oc2ccc3c(c2)cc(C(=O)N2CCN(Cc4ccc(OC(F)F)cc4)CC2)n3C)nc1	> 100 µM	> 100 µM	> 100 µM	> 100 µM	1.71 µM	> 100 µM	156 nM	> 100 µM	11.7 µM	> 84 µM	3960 nM	> 100 µM	0.253 µM	> 58.2 µM	15.7 µM	> 96.1 µM
Fc1cc2[nH]ncc2c2c3c(c(-c4cn[nH]c4)nc12)CCCC3	0.541 µM	4.54 µM	2.13 µM	12.2 µM	1.48 µM	> 30.2 µM	1080 nM	13.6 µM	0.994 µM	2.32 µM	632 nM	2.31 µM	1.26 µM	> 21.5 µM	1.21 µM	> 27.8 µM
O=C1c2cc3c(cc2-c2c1c1ccc(F)cc1c(=O)n2CCCNCCO)OCO3	0.0367 µM	1.09 µM	0.242 µM	1.23 µM	0.0538 µM	0.356 µM	57.7 nM	0.571 µM	–	–	28.1 nM	0.174 µM	–	–	0.148 µM	0.487 µM
OCCCCCNCc1cc2cc3c(cc2c2cc(OCc4ccccc4)ccc12)OCO3	1.94 µM	3.45 µM	–	–	1.48 µM	2.8 µM	–	–	1.72 µM	3.09 µM	1710 nM	3.08 µM	–	–	1.55 µM	2.95 µM
OC(c1nc2ccccc2[nH]1)C(O)C(O)C(O)c1nc2ccccc2[nH]1 (stereo unspecified)	–	> 100 µM	–	> 100 µM	–	> 100 µM	–	> 100 µM	–	> 100 µM	–	> 100 µM	–	> 100 µM	–	> 100 µM
C=C(Br)C(C)(Br)CCC(Br)C(C)(C)Cl (stereo unspecified)	–	39 µM	–	39.7 µM	–	35.7 µM	–	58.4 µM	–	33.9 µM	–	40.7 µM	–	44.1 µM	–	32.7 µM
CCN1CCN(c2nc(C)cc(N(CCNc3ccnc4cc(Cl)ccc34)Cc3ccc4c(c3)OCO4)n2)CC1	1.84 µM	3.44 µM	3.58 µM	13.6 µM	2.69 µM	7.9 µM	1310 nM	3.76 µM	1.35 µM	2.9 µM	1850 nM	3.38 µM	1.73 µM	3.87 µM	1.66 µM	3.16 µM
Cc1cc(I)cc(CN(C)CCCN2CCCCC2)c1O	14.4 µM	27.5 µM	21 µM	59.4 µM	26.9 µM	> 100 µM	11800 nM	29.9 µM	16.6 µM	34.8 µM	14200 nM	41.6 µM	15.8 µM	43 µM	19.8 µM	37.7 µM
Cc1cc(-c2ccc3nc(C4CCOCC4)n(CCOC(F)(F)F)c3c2)cn(C)c1=O	–	–	0.552 µM	> 56.4 µM	0.952 µM	–	130 nM	> 31.6 µM	–	5.97 µM	–	2.06 µM	–	–	–	4.64 µM
CCN(CC)/C(SCc1ccccc1)=C(\C(Cl)=C(Cl)Cl)[N+](=O)[O-]	–	29.3 µM	–	41.2 µM	–	31.7 µM	–	65.6 µM	–	–	–	18.1 µM	–	86.7 µM	–	33.3 µM
CCOC(=O)c1cc2nc3ccccc3c(=O)n2c2ccccc12	–	> 10 µM	–	> 10 µM	–	> 10 µM	–	> 10 µM	–	> 10 µM	–	> 10 µM	–	> 10 µM	–	> 10 µM
CC(=O)[C@@]12O[C@@H]1CC1C3CCC4=CC(O)CCC4(C)C3CCC12C (stereo partly specified)	95.9 µM	> 100 µM	27.9 µM	88.3 µM	23.3 µM	82.3 µM	21600 nM	97.1 µM	18.7 µM	50.8 µM	> 100000 nM	> 100 µM	–	–	15.9 µM	56.9 µM
Cc1ccc(S(=O)(=O)Nc2ccccc2C(=O)c2ccc(C)c(C)c2)cc1	–	> 100 µM	–	> 100 µM	–	> 100 µM	–	> 100 µM	–	> 100 µM	–	> 100 µM	–	> 100 µM	–	> 100 µM
Cc1cc(O)c(/C=N/C(=S)NCc2ccccc2)c(=O)o1	–	> 100 µM	–	> 100 µM	–	> 100 µM	–	–	–	> 100 µM	–	> 100 µM	–	> 100 µM	–	> 100 µM
O=C(/C=C/c1ccncc1)c1cc(Cl)ccc1O	17.5 µM	34.1 µM	24 µM	50.7 µM	23.6 µM	57 µM	2340 nM	5.25 µM	17.5 µM	32.2 µM	15900 nM	37.3 µM	18.8 µM	53.1 µM	–	–
Cc1c2c(nn1-c1ccc(S(=O)(=O)/N=C3\SCCC(=O)N3c3ccccc3)cc1)-c1ccccc1CC2	> 100 µM	> 100 µM	> 100 µM	> 100 µM	89.6 µM	> 100 µM	–	–	–	–	> 100000 nM	> 100 µM	> 100 µM	> 100 µM	> 100 µM	> 100 µM
O=[N+]([O-])C(/C=C(\Cl)n1nnc2ccccc21)=C(/Cl)n1nnc2ccccc21	–	> 100 µM	–	> 100 µM	–	–	–	> 100 µM	–	–	–	> 100 µM	–	> 100 µM	–	> 100 µM
N#CC(C#N)=CNC(N)=S	–	> 100 µM	–	> 100 µM	–	> 100 µM	–	> 100 µM	–	> 100 µM	–	> 100 µM	–	> 100 µM	–	–
COc1cc(C2c3cc4c(cc3OC(C)(O)C2C)OCO4)cc(OC)c1OC (stereo unspecified)	–	–	–	> 100 µM	–	> 100 µM	–	0.721 µM	–	–	–	–	–	–	–	–
COc1cc(/C=C/c2cc(O)c(C(C)=O)c(O)c2)cc2c1O[C@]1(C)CC[C@@H](O)C(C)(C)[C@H]1C2	5.12 µM	49.4 µM	16.3 µM	75.5 µM	8.24 µM	> 100 µM	–	–	1.77 µM	27 µM	2890 nM	11.5 µM	6.22 µM	64.6 µM	22.2 µM	> 100 µM
CC(C)[C@H]1COC(=O)N1[C@@H]1C(=O)N([C@@H](CCC(=O)N2CCN(C3CCCC3)CC2)C(=O)N[C@@H]2CCCc3ccccc32)[C@@H]1/C=C/c1cccc(Br)c1	1.8 µM	3.46 µM	–	–	4.12 µM	15.4 µM	1470 nM	3.93 µM	1.36 µM	3.91 µM	1800 nM	3.58 µM	2.26 µM	–	1.46 µM	3.47 µM
Cc1cccc(NC(=O)Cn2cnc3sc(C(=O)OC(C)C)c(C)c3c2=O)c1	> 50 µM	> 50 µM	–	–	17.4 µM	> 50 µM	> 50000 nM	> 50 µM	17.5 µM	39.5 µM	8780 nM	24.3 µM	> 50 µM	> 50 µM	16.7 µM	> 50 µM
COc1ccc([C@H]2[C@@H](F)C(=O)N2c2cc(OC)c(OC)c(OC)c2)cc1F	–	–	0.423 µM	> 100 µM	0.368 µM	> 100 µM	55 nM	37.3 µM	> 100 µM	> 100 µM	–	–	–	–	38.6 µM	> 100 µM
COc1cc2c3c(n(C)c(=O)c2cc1OC)-c1cc2c(cc1/C3=C\CCCN)OCO2	12.4 µM	> 100 µM	3.75 µM	26.2 µM	10.1 µM	22.4 µM	–	–	11.2 µM	31.6 µM	2130 nM	13.7 µM	10.9 µM	> 100 µM	21.9 µM	> 100 µM
